Measured values reported in publication PMC6098982 (Natural product research, 2018).
pIC50: −log10 of the molar value.

What was measured:
[1] = biological target: Mu opioid receptor (Homo sapiens, UniProt P35372); test: Mu opioid receptor displacement; format: binding
[2] = biological target: Delta opioid receptor (Homo sapiens, UniProt P41143); test: Delta opioid receptor displacement; format: binding
[3] = test system: Leishmania donovani; test: Activity towards Leishmania donovani; format: cell-based
[4] = biological target: CB2 receptor (Homo sapiens, UniProt P34972); test: CB2 receptor displacement; format: binding
Chain of CB2 receptor (P34972 whole entry): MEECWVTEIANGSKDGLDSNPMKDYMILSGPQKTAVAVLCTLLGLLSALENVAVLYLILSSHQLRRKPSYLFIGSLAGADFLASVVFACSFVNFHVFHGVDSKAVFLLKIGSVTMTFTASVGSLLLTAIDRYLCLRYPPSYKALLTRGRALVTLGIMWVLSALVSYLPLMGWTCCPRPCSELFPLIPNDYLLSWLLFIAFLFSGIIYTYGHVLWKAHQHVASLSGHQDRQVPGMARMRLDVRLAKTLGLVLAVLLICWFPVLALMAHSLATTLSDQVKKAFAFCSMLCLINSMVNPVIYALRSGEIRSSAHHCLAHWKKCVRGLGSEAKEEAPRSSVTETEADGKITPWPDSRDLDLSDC

[5] = test system: Trypanosoma brucei; test: Inhibition of Trypanosoma brucei; format: cell-based
[6] = test system: Escherichia coli; test: Inhibition of Escherichia coli; format: cell-based

Chain of Delta opioid receptor (P41143 whole entry): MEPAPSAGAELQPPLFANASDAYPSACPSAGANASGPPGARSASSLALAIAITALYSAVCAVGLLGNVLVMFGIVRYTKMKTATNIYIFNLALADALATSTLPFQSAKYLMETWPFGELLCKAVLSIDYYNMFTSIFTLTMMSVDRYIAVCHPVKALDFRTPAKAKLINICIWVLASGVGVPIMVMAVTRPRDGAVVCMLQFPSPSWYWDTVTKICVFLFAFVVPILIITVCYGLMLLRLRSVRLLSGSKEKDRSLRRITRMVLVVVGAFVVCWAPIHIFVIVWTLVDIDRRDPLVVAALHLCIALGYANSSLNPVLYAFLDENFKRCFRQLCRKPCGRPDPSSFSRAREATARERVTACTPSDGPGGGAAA
Chain of Mu opioid receptor (P35372 whole entry): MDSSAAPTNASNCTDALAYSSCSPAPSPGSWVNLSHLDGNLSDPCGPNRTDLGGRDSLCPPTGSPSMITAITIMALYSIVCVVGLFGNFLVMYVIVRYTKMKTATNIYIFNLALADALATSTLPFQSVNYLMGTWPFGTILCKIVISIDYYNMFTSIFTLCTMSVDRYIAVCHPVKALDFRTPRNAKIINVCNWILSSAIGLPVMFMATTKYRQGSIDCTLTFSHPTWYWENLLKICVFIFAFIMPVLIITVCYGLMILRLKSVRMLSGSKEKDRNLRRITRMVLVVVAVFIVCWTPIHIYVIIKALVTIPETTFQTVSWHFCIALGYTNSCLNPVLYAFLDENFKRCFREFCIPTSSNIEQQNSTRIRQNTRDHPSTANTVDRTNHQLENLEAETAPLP

CC1=C[C@H](O)CC(C)(C)[C@H]1/C=C/C(C)=C/C=C/C(C)=C/C=C/C=C(C)/C=C/C=C(C)/C=C/C1=C(C)C[C@@H](O)CC1(C)C [Compound 4, lutein]
displacement in Mu opioid receptor [1]: 49%
displacement in Delta opioid receptor [2]: 65%
activity towards Leishmania donovani [3]: 48%
pIC50 ([3]; Leishmania donovani, read-out: IC50 Leishmania donovani): 5.03
pIC50 [4]: 4.25
displacement in CB2 receptor [4]: 73%
inhibition towards Trypanosoma brucei [5]: 93%
pIC50 ([5]; Trypanosoma brucei, read-out: IC50 T. brucei): 5.38

myricitrin [Compound 11]
inhibition towards Escherichia coli Pinh [6]: 99%
pIC50 ([6]; read-out: IC50 Escherichia coli): 5.95
